Measurements published in patent US10414718B2, “Dezocine analogue” (priority 2016, dated 2019).

How the values were obtained:
Assay type in all cases: cell-based
μ opioid receptor = biological target: T1, μ opioid receptor (Homo sapiens, UniProt P35372); experiment: FLIPR intracellular calcium signal test, HEK293-μ cells; details: for EC50: EC50 (activation) test, read-out: Mu receptor EC50; for IC50: IC50 (inhibition) test against EC80 of positive agonist, read-out: Mu receptor IC50
T1 construct: expressed in transfected cells
T1 sequence (P35372 whole entry): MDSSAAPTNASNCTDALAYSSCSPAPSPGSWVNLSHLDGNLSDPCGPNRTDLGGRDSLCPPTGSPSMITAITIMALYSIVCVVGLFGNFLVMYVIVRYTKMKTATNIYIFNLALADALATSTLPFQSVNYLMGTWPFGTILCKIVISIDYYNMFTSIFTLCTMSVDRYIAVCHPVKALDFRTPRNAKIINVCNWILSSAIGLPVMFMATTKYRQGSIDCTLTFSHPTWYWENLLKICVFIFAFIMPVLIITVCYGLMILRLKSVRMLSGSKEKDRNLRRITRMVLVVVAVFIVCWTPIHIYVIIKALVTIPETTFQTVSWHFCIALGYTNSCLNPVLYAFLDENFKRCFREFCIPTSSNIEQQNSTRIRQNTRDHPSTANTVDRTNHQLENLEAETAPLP
Description: (§1) Fluorescence imaging plate reader FLIPR was used to detect changes of intracellular calcium signals. EC50 and IC50 values of the compounds were used as indicators to evaluate the activation or inhibition of the compounds on μ, κ, and δ opioid receptors.
(§2) Cell lines: HEK293-μ, HEK293-κ and HEK293-δ, stable-transfected cell lines HEK293-μ, HEK293-κ and HEK293-δ; Cell culture media (DMEM, Invitrogen #11965118, 10% fetal bovine serum Invitrogen #10099141, Geneticin Selective Antibiotic (G418) 300 μg/mL, Invitrogen #10131027, Blasticidin-S HCL 2 ug/mL Invitrogen #A1113902)
(§3) 1. Cell Seeding (HEK293-μ, HEK293-κ and HEK293-δ Cells)
(§4) 1) Preheating medium, pancreatic enzyme, and DPBS in a 37° C. water bath. Aspirating the culture medium from the cell culture flask and washing it with 10 mL DPBS;
(§5) 2) Adding the preheated pancreatic enzyme solution to the cell culture flask, rotating the flask slightly to make the pancreatic enzymes evenly cover the cell surface of the flask, and then putting it into a 37° C., 5% CO2 incubator to digest for 1-2 minutes;
(§6) 3) Suspending the cells with 10-15 mL culture medium in each T150 cm^2 cell culture flask, centrifugating at 800 rpm for 5 minutes, and resuspending the cells with 10 mL culture medium, aspirating 1 mL cell resuspension to be counted with Vi-cell;
(§7) 4) Diluting HEK293-μ, HEK293-κ and HEK293-δ cells to 5×10^5/mL with culture medium, use multichannel pipette to add diluted cells into 384 plate (Greiner #781946) (50 μL/well, 25000 cells/well for HEK293-μ, HEK293-κ and HEK293-δ cells). Placing the cell plate in a 37° C., 5% CO2 incubator overnight.
(§8) 2. Adding Compound Samples:
(§9) 1) Diluting the compound to 20 mM with DMSO, 3 fold diluted, 8 gradients, double reduplicative wells, and adding it to the compound plate using an Echo ultrasonic liquid handler device (Echo liquid handler).
(§10) 1) Washing off the cell culture medium in 384 plate with vacuum pump, adding 20 μL Fluo-4 Direct fluorescent dye, then incubating in a 37° C., 5% CO2 incubator for 50 minutes, followed by equilibrating at room temperature for 10 minutes.
(§11) 2) EC50 test: Adding 20 uL HBSS buffer (containing 20 mM HEPES) to the compound plate, mixing well and centrifugating. Placing the cell plate and compound plate into FLIPR and reading the fluorescence value.
(§12) Calculating the EC80 value with the EC50 value of the positive agonist, preparing 4× EC80 solution, adding it to the 384 compound plate by multichannel pipette, and mixing well and centrifugating.
(§13) 4) IC50 test: In FLIPR, successively placing 4× EC80 plate, cell plate, FLIPR tip, running the program and reading the fluorescence value.
(§14) 4. Data Analyzing: Using Prism 5.0 to Analyze the Data and Calculate the EC50 and IC50 Values of the Compounds.

κ opioid receptor = biological target: T2, κ opioid receptor (Homo sapiens, UniProt P41145); experiment: FLIPR intracellular calcium signal test, HEK293-κ cells; details: for EC50: EC50 (activation) test, read-out: Kapp receptor EC50; for IC50: IC50 (inhibition) test against EC80 of positive agonist, read-out: Kapp receptor IC50
T2 construct: expressed in transfected cells
T2 sequence (P41145 whole entry): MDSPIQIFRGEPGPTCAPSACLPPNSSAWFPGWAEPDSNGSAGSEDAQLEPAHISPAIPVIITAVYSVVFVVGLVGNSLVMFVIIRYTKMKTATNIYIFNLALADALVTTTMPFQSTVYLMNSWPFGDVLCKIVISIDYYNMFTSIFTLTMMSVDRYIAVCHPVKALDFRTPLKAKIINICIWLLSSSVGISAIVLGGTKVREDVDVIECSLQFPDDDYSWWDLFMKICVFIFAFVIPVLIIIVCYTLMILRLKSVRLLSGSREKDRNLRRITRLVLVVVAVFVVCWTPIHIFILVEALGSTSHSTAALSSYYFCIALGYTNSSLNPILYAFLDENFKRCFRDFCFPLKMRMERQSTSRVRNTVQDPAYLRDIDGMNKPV
Description: as §1, §2, §3, §4, §5, §6, §7, §8, §9, §10, §11, §12, §13, §14

δ opioid receptor = biological target: T3, δ opioid receptor (Homo sapiens, UniProt P41143); experiment: FLIPR intracellular calcium signal test, HEK293-δ cells; details: for EC50: EC50 (activation) test, read-out: Delt receptor EC50; for IC50: IC50 (inhibition) test against EC80 of positive agonist, read-out: Delt receptor IC50
T3 construct: expressed in transfected cells
T3 sequence (P41143 whole entry): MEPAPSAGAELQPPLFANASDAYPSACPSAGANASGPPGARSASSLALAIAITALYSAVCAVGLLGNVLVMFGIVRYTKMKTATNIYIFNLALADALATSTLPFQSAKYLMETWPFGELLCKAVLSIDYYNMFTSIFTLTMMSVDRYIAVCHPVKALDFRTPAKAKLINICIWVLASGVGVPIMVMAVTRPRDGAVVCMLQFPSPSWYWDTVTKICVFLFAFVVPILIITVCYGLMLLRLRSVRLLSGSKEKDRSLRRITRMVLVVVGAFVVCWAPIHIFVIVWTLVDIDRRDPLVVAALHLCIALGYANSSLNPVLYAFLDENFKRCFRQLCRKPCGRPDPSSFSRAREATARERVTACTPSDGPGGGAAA
Description: as §1, §2, §3, §4, §5, §6, §7, §8, §9, §10, §11, §12, §13, §14

Compound | EC50 (μ opioid receptor) | IC50 (μ opioid receptor) | EC50 (κ opioid receptor) | IC50 (κ opioid receptor) | EC50 (δ opioid receptor) | IC50 (δ opioid receptor)
CC12CCCCC(Cc3c(F)cc(O)cc31)C2N (single isomer, unassigned) [Compound 32] | 0.1 to 1 µM | 0.1 to 1 µM | 0.1 to 1 µM | 0.1 to 1 µM | > 100 µM | 1 to 10 µM
CC12CCCCC(Cc3c(F)cc(O)cc31)C2N (single isomer, unassigned) [Compound 33] | 0.1 to 1 µM | 1 to 10 µM | 0.1 to 1 µM | 0.1 to 1 µM | 1 to 10 µM | 1 to 10 µM
Cc1cc(O)cc2c1CC1CCCCCC2(C)C1N (stereo not shown) [Compound 1] | > 100 µM | ≤ 0.1 µM | > 100 µM | 0.1 to 1 µM | > 100 µM | 1 to 10 µM
CC12CCCCCC(Cc3ccc(O)cc31)C2N (stereo not shown) [Compound 2, reference compound] |  |  | > 100 µM | 1 to 10 µM | > 100 µM | > 100 µM
CC12CCCCCC(Cc3c(Cl)cc(O)cc31)C2N (stereo not shown) [Compound 3] | 0.1 to 1 µM | 0.1 to 1 µM | > 100 µM | 0.1 to 1 µM | > 100 µM | 1 to 10 µM
CC12CCCCCC(Cc3ccc(O)c(F)c31)C2N (stereo not shown) [Compound 4] | 0.1 to 1 µM | 0.1 to 1 µM | > 100 µM | 1 to 10 µM | > 100 µM | > 100 µM
CC12CCCCCC(Cc3cc(O)c(O)cc31)C2N (stereo not shown) [Compound 5] | 1 to 10 µM | 10 to 100 µM | 1 to 10 µM | 10 to 100 µM | > 100 µM | > 100 µM
CC12CCCCCC(Cc3c(F)cc(O)cc31)C2N (stereo not shown) [Compound 6] | ≤ 0.1 µM | 0.1 to 1 µM | > 100 µM | 1 to 10 µM | > 100 µM | 1 to 10 µM
COc1cc(O)cc2c1CC1CCCCCC2(C)C1N (stereo not shown) [Compound 7] | > 100 µM | 1 to 10 µM | > 100 µM | 1 to 10 µM | > 100 µM | > 100 µM
CC12CCOCCC(Cc3ccc(O)cc31)C2N (stereo not shown) [Compound 8] | 0.1 to 1 µM | 1 to 10 µM | > 100 µM | 1 to 10 µM | > 100 µM | > 100 µM
CCc1cc(O)cc2c1CC1CCCCCC2(C)C1N (stereo not shown) [Compound 9] | > 100 µM | 1 to 10 µM | > 100 µM | 1 to 10 µM | > 100 µM | > 100 µM
CC(C)c1cc(O)cc2c1CC1CCCCCC2(C)C1N (stereo not shown) [Compound 10] | > 100 µM | 10 to 100 µM | > 100 µM | 10 to 100 µM | > 100 µM | > 100 µM
CC12CCCCCC(Cc3c(-c4ccccc4)cc(O)cc31)C2N (stereo not shown) [Compound 11] | > 100 µM | > 100 µM | 10 to 100 µM | > 100 µM | > 100 µM | > 100 µM
CC12CCCCCC(Cc3cc(Br)c(O)cc31)C2N (stereo not shown) [Compound 12] | 10 to 100 µM | 10 to 100 µM | > 100 µM | > 100 µM | > 100 µM | > 100 µM
CC(C)c1cc2c(cc1O)C1(C)CCCCCC(C2)C1N (stereo not shown) [Compound 13] | 10 to 100 µM | 10 to 100 µM | 10 to 100 µM | 10 to 100 µM | > 100 µM | > 100 µM
Cc1cc2c(cc1O)C1(C)CCCCCC(C2)C1N (stereo not shown) [Compound 14] | 10 to 100 µM | 10 to 100 µM | > 100 µM | 10 to 100 µM | > 100 µM | > 100 µM
CC12CCCCCC(Cc3cc(C4CC4)c(O)cc31)C2N (stereo not shown) [Compound 15] | > 100 µM | > 100 µM | 10 to 100 µM | > 100 µM | > 100 µM | > 100 µM
CC12CCCCCC(Cc3c(CO)cc(O)cc31)C2N (stereo not shown) [Compound 18] | > 100 µM | 1 to 10 µM | > 100 µM | > 100 µM | > 100 µM | > 100 µM
CC12CCCCCC(Cc3cc(C#N)c(O)cc31)C2N (stereo not shown) [Compound 19] | > 100 µM | > 100 µM | > 100 µM | > 100 µM | > 100 µM | > 100 µM
CC12CCCCCC(Cc3cc(Cl)c(O)c(Cl)c31)C2N (stereo not shown) [Compound 20] | > 100 µM | 10 to 100 µM | > 100 µM | 10 to 100 µM | > 100 µM | > 100 µM
C[C@]12CCCCC[C@H](Cc3c(F)cc(O)cc31)[C@@H]2N [Compound 22] | 1 to 10 µM | 0.1 to 1 µM | > 100 µM | 1 to 10 µM | > 100 µM | 10 to 100 µM
C[C@]12CCCCC[C@H](Cc3c(Cl)cc(O)cc31)[C@H]2N [Compound 24] | 10 to 100 µM | 0.1 to 1 µM | > 100 µM | 1 to 10 µM | > 100 µM | 1 to 10 µM
C[C@@]12CCOCC[C@@H](Cc3ccc(O)cc31)[C@@H]2N [Compound 25] | 0.1 to 1 µM | 1 to 10 µM | > 100 µM | 1 to 10 µM | > 100 µM | 1 to 10 µM
C[C@]12CCOCC[C@H](Cc3ccc(O)cc31)[C@H]2N [Compound 26] | > 100 µM | 10 to 100 µM | > 100 µM | > 100 µM | > 100 µM | > 100 µM
CC12CCCCCC(Cc3c(O)cc(O)cc31)C2N (stereo not shown) [Compound 27] | > 100 µM | 1 to 10 µM | > 100 µM | 10 to 100 µM | > 100 µM | > 100 µM
CCCC12CCCCC(Cc3c(F)cc(O)cc31)C2N (stereo not shown) [Compound 30] | 0.1 to 1 µM | 0.1 to 1 µM | > 100 µM | 0.1 to 1 µM | > 100 µM | 10 to 100 µM
